From patent US20220054513A1, “COMBINATION COMPOSITIONS COMPRISING A BETA-LACTAMASE INHIBITOR” (VenatoRx Pharmaceuticals, Inc., priority 2018, published 2022)

What was measured:
[1] = system: carbapenem resistant Enterobacteriaceae (CRE); experiment: MIC of cefiderocol with Compound 1 vs approved BL/BLI combinations, 120 CRE isolates; conditions: IDM
Method: A panel of 30 strains of characterized Enterobacteriaceae isolates produce Ambler class A, B, C, and D β-lactamase were used. […] IDM was prepared by adding 100 g of chelex (a chelating agent) to 1 L of sterile CAMBH and stirring for 2 hours. The chelex treated media was then filtered using a 0.2 μm filter and divalent Ca, Mg, and Zn are added back at relevant concentrations. The pH was adjusted to 7.2 using HCl and the media was filtered again to ensure sterility. This created a medium that was devoid of iron but retains appropriate concentration of other cations and was necessary for evaluating the activity of cefiderocol originating from its uptake by bacterial iron transporters. Bacteria strains were grown for 3-5 hours in CAMHB and IDM. Cefiderocol was added either to a microtiter plate in 2-fold serial dilutions in CAMHB and in parallel in IDM. […] Once the test articles were added the plates were inoculated according to CLSI broth microdilution method.
The challenge set of organisms consisted of a variety of Enterobacteriaceae species expressing IMP (n=30), NDM (30), VIM (15), KPC (n=30), and AmpC (n=15).

[2] = system: β-lactamase expressing Enterobacteriaceae; experiment: broth microdilution MIC of cefiderocol +/- Compound 1, panel of 30 Enterobacteriaceae strains (MIC50/MIC90); type: cell-based

With `CC(C)(O/N=C(\C(=O)N[C@@H]1C(=O)N2C(C(=O)[O-])=C(C[N+]3(CCNC(=O)c4ccc(O)c(O)c4Cl)CCCC3)CS[C@H]12)c1csc(N)n1)C(=O)O` [FDC, cefiderocol] as the compound, how does the MIC ([1]; Klebsiella aerogenes, Enterobacter aerogenes 847438 (CTX-M-2, KPC)) read?
The MIC was 0.059 µg/mL.

And the MIC ([1]; Klebsiella aerogenes, Enterobacter aerogenes CDC-0161 (IMP-4, TEM-1B, OXA-1, SFO-1))?
Its MIC is 2 µg/mL.

What about the MIC ([1]; Klebsiella aerogenes, Enterobacter aerogenes IHMA 846505 (CMY-2, IMP)) of the same compound?
Its MIC is 0.5 µg/mL.

What about the MIC ([1]; Klebsiella aerogenes, Enterobacter aerogenes IHMA 890184 (IMP)) of the same compound?
The MIC was 0.059 µg/mL.

And the MIC ([1]; Klebsiella oxytoca, Klebsiella oxytoca 847537 (KPC-2))?
Its MIC is 1 µg/mL.

What about the MIC ([1]; Klebsiella oxytoca, Klebsiella oxytoca 847539 (CTX-M-2, KPC)) of the same compound?
Its MIC is 1 µg/mL.

And the MIC ([1]; Klebsiella oxytoca, Klebsiella oxytoca 1274060 (IMP-4))?
Its MIC is 0.059 µg/mL.

What about the MIC ([1]; Klebsiella oxytoca, Klebsiella oxytoca 1417076 (IMP-8)) of the same compound?
Its MIC is 4 µg/mL.

And the MIC ([1]; Klebsiella oxytoca, Klebsiella oxytoca 1417077 (IMP-8))?
Its MIC is 4 µg/mL.

What about the MIC ([1]; Klebsiella oxytoca, Klebsiella oxytoca 1585615 (IMP-4)) of the same compound?
Its MIC is 0.25 µg/mL.

What about the MIC ([1]; Klebsiella oxytoca, Klebsiella oxytoca 1622674 (VIM-44)) of the same compound?
The MIC was 1 µg/mL.

And the MIC ([1]; Klebsiella oxytoca, Klebsiella oxytoca IHMA 871515 (IMP, KPC-2, SHV-12))?
Its MIC is 1 µg/mL.

And the MIC ([1]; Klebsiella oxytoca, Klebsiella oxytoca IHMA 871516 (IMP, KPC-2, SHV-12))?
The MIC was 0.059 µg/mL.

What about the MIC ([1]; Klebsiella oxytoca, Klebsiella oxytoca IHMA 871518 (IMP, KPC-2, SHV-12)) of the same compound?
The MIC was 1 µg/mL.

And the MIC ([1]; Klebsiella pneumoniae, Klebsiella pneumoniae 845661 (KPC-3))?
The MIC was 1 µg/mL.

And the MIC ([1]; Klebsiella pneumoniae, Klebsiella pneumoniae 845662 (KPC-3))?
Its MIC is 4 µg/mL.

What about the MIC ([1]; Klebsiella pneumoniae, Klebsiella pneumoniae 845665 (KPC-3)) of the same compound?
Its MIC is 1 µg/mL.

What about the MIC ([1]; Klebsiella pneumoniae, Klebsiella pneumoniae 845667 (KPC-3)) of the same compound?
Its MIC is 1 µg/mL.

And the MIC ([1]; Klebsiella pneumoniae, Klebsiella pneumoniae 845670 (KPC-3))?
The MIC was 0.25 µg/mL.

What about the MIC ([1]; Klebsiella pneumoniae, Klebsiella pneumoniae 845904 (KPC-3)) of the same compound?
The MIC was 2 µg/mL.

And the MIC ([1]; Klebsiella pneumoniae, Klebsiella pneumoniae 847204 (KPC-2))?
The MIC was 0.5 µg/mL.

What about the MIC ([1]; Klebsiella pneumoniae, Klebsiella pneumoniae 847375 (SHV-12, KPC-2)) of the same compound?
Its MIC is 1 µg/mL.

And the MIC ([1]; Klebsiella pneumoniae, Klebsiella pneumoniae 847378 (SHV-12, KPC-2))?
Its MIC is 4 µg/mL.

What about the MIC ([1]; Klebsiella pneumoniae, Klebsiella pneumoniae 847379 (CTX-M-2, KPC-2)) of the same compound?
The MIC was 0.125 µg/mL.

What about the MIC ([1]; Klebsiella pneumoniae, Klebsiella pneumoniae 847383 (KPC-2)) of the same compound?
Its MIC is 2 µg/mL.

And the MIC ([1]; Klebsiella pneumoniae, Klebsiella pneumoniae 847384 (SHV-12, KPC-2))?
Its MIC is 1 µg/mL.

And the MIC ([1]; Klebsiella pneumoniae, Klebsiella pneumoniae 847387 (SHV-12, KPC-2))?
The MIC was 2 µg/mL.

And the MIC ([1]; Klebsiella pneumoniae, Klebsiella pneumoniae 847747 (CTX-M-2, KPC))?
The MIC was 0.5 µg/mL.

What about the MIC ([1]; Klebsiella pneumoniae, Klebsiella pneumoniae 848561 (SHV-11, CTX-M-3, KPC)) of the same compound?
The MIC was 2 µg/mL.

What about the MIC ([1]; Klebsiella pneumoniae, Klebsiella pneumoniae 848562 (SHV-11, KPC-3)) of the same compound?
The MIC was 1 µg/mL.

And the MIC ([1]; Klebsiella pneumoniae, Klebsiella pneumoniae 848563 (KPC-3))?
The MIC was 0.5 µg/mL.

And the MIC ([1]; Klebsiella pneumoniae, Klebsiella pneumoniae 848566 (SHV-11, KPC-3))?
The MIC was 1 µg/mL.

What about the MIC ([1]; Klebsiella pneumoniae, Klebsiella pneumoniae 848600 (KPC-3)) of the same compound?
The MIC was 1 µg/mL.

And the MIC ([1]; Klebsiella pneumoniae, Klebsiella pneumoniae 848788 (KPC-2))?
Its MIC is 0.5 µg/mL.

What about the MIC ([1]; Klebsiella pneumoniae, Klebsiella pneumoniae 848790 (KPC-2)) of the same compound?
Its MIC is 2 µg/mL.

What about the MIC ([1]; Klebsiella pneumoniae, Klebsiella pneumoniae 848791 (SHV-12, KPC-2)) of the same compound?
The MIC was 4 µg/mL.

And the MIC ([1]; Klebsiella pneumoniae, Klebsiella pneumoniae 848828 (SHV-12, KPC-2))?
Its MIC is 4 µg/mL.

What about the MIC ([1]; Klebsiella pneumoniae, Klebsiella pneumoniae 848832 (KPC-2)) of the same compound?
The MIC was 0.5 µg/mL.

What about the MIC ([1]; Klebsiella pneumoniae, Klebsiella pneumoniae 848842 (SHV-2A, KPC-2)) of the same compound?
Its MIC is 1 µg/mL.

What about the MIC ([1]; Klebsiella pneumoniae, Klebsiella pneumoniae 848844 (SHV-11, KPC-2)) of the same compound?
Its MIC is 4 µg/mL.

What about the MIC ([1]; Klebsiella pneumoniae, Klebsiella pneumoniae 890066 (SHV-33; TEM-33; CTX-M-15; IMP-1)) of the same compound?
Its MIC is 0.5 µg/mL.

What about the MIC ([1]; Klebsiella pneumoniae, Klebsiella pneumoniae 1212142 (NDM-6)) of the same compound?
Its MIC is 4 µg/mL.

What about the MIC ([1]; Klebsiella pneumoniae, Klebsiella pneumoniae 1212258 (NDM-6)) of the same compound?
The MIC was 4 µg/mL.

What about the MIC ([1]; Klebsiella pneumoniae, Klebsiella pneumoniae 1212290 (NDM-6)) of the same compound?
The MIC was 4 µg/mL.

And the MIC ([1]; Klebsiella pneumoniae, Klebsiella pneumoniae 1212347 (NDM-6))?
Its MIC is 4 µg/mL.

What about the MIC ([1]; Klebsiella pneumoniae, Klebsiella pneumoniae 1212352 (NDM-6)) of the same compound?
The MIC was 1 µg/mL.

What about the MIC ([1]; Klebsiella pneumoniae, Klebsiella pneumoniae 1251598 (VIM-26)) of the same compound?
Its MIC is 0.5 µg/mL.

What about the MIC ([1]; Klebsiella pneumoniae, Klebsiella pneumoniae 1251599 (VIM-26)) of the same compound?
Its MIC is 0.5 µg/mL.

What about the MIC ([1]; Klebsiella pneumoniae, Klebsiella pneumoniae 1251600 (VIM-26)) of the same compound?
Its MIC is 0.25 µg/mL.

And the MIC ([1]; Klebsiella pneumoniae, Klebsiella pneumoniae 1251604 (VIM-26))?
The MIC was 0.25 µg/mL.

And the MIC ([1]; Klebsiella pneumoniae, Klebsiella pneumoniae 1277372 (NDM-7))?
Its MIC is 2 µg/mL.

And the MIC ([1]; Klebsiella pneumoniae, Klebsiella pneumoniae 1277416 (IMP-26))?
The MIC was 0.5 µg/mL.

And the MIC ([1]; Klebsiella pneumoniae, Klebsiella pneumoniae 1286102 (NDM-7))?
Its MIC is 4 µg/mL.

And the MIC ([1]; Klebsiella pneumoniae, Klebsiella pneumoniae 1286206 (NDM-7))?
The MIC was 4 µg/mL.

And the MIC ([1]; Klebsiella pneumoniae, Klebsiella pneumoniae 1369220 (NDM-6))?
The MIC was 8 µg/mL.

And the MIC ([1]; Klebsiella pneumoniae, Klebsiella pneumoniae 1369251 (NDM-6))?
Its MIC is 16 µg/mL.

And the MIC ([1]; Klebsiella pneumoniae, Klebsiella pneumoniae 1369306 (NDM-6))?
The MIC was 8 µg/mL.

What about the MIC ([1]; Klebsiella pneumoniae, Klebsiella pneumoniae 1371650 (NDM-6)) of the same compound?
The MIC was 4 µg/mL.

What about the MIC ([1]; Klebsiella pneumoniae, Klebsiella pneumoniae 1371730 (NDM-6)) of the same compound?
Its MIC is 1 µg/mL.

And the MIC ([1]; Klebsiella pneumoniae, Klebsiella pneumoniae 1379123 (NDM-4))?
The MIC was 4 µg/mL.

And the MIC ([1]; Klebsiella pneumoniae, Klebsiella pneumoniae 1385577 (NDM-4))?
Its MIC is 8 µg/mL.

And the MIC ([1]; Klebsiella pneumoniae, Klebsiella pneumoniae 1385586 (NDM-4))?
The MIC was 4 µg/mL.

What about the MIC ([1]; Klebsiella pneumoniae, Klebsiella pneumoniae 1385622 (NDM-4)) of the same compound?
Its MIC is 2 µg/mL.

And the MIC ([1]; Klebsiella pneumoniae, Klebsiella pneumoniae 1420892 (IMP-4))?
Its MIC is 2 µg/mL.

What about the MIC ([1]; Klebsiella pneumoniae, Klebsiella pneumoniae 1455463 (NDM-4)) of the same compound?
Its MIC is 8 µg/mL.

What about the MIC ([1]; Klebsiella pneumoniae, Klebsiella pneumoniae 1455545 (NDM-4)) of the same compound?
Its MIC is 0.5 µg/mL.

What about the MIC ([1]; Klebsiella pneumoniae, Klebsiella pneumoniae 1459396 (NDM-7)) of the same compound?
Its MIC is 1 µg/mL.

And the MIC ([1]; Klebsiella pneumoniae, Klebsiella pneumoniae 1459398 (NDM-7))?
The MIC was 8 µg/mL.

And the MIC ([1]; Klebsiella pneumoniae, Klebsiella pneumoniae 1591688 (IMP-4))?
Its MIC is 1 µg/mL.

What about the MIC ([1]; Klebsiella pneumoniae, Klebsiella pneumoniae 1591702 (IMP-4)) of the same compound?
Its MIC is 1 µg/mL.

What about the MIC ([1]; Klebsiella pneumoniae, Klebsiella pneumoniae 1607267 (IMP-4)) of the same compound?
Its MIC is 4 µg/mL.

What about the MIC ([1]; Klebsiella pneumoniae, Klebsiella pneumoniae 1610707 (VIM-24)) of the same compound?
Its MIC is 0.25 µg/mL.

What about the MIC ([1]; Klebsiella pneumoniae, Klebsiella pneumoniae 1621162 (VIM-12)) of the same compound?
The MIC was 0.5 µg/mL.

And the MIC ([1]; Klebsiella pneumoniae, Klebsiella pneumoniae CDC-0034 (IMP-4, TEM-1B, SHV-11))?
Its MIC is 0.25 µg/mL.

And the MIC ([1]; Klebsiella pneumoniae, Klebsiella pneumoniae CDC-0080 (IMP-4, TEM-1B, OKP-B-2, OXA-1, SFO-1))?
The MIC was 0.5 µg/mL.

And the MIC ([1]; Klebsiella pneumoniae, Klebsiella pneumoniae IHMA 469384 (IMP-26, SHV-12))?
The MIC was 0.059 µg/mL.

And the MIC ([1]; Klebsiella pneumoniae, Klebsiella pneumoniae IHMA 511121 (IMP-26))?
The MIC was 1 µg/mL.

What about the MIC ([1]; Klebsiella pneumoniae, Klebsiella pneumoniae IHMA 511128 (IMP-26)) of the same compound?
The MIC was 2 µg/mL.

What about the MIC ([1]; Klebsiella pneumoniae, Klebsiella pneumoniae IHMA 511163 (IMP-26)) of the same compound?
Its MIC is 4 µg/mL.

What about the MIC ([1]; Klebsiella pneumoniae, Klebsiella pneumoniae IHMA 600482 (CTX-M-15, IMP-26)) of the same compound?
The MIC was 2 µg/mL.

What about the MIC ([1]; Klebsiella pneumoniae, Klebsiella pneumoniae SI-128 (IMP-5)) of the same compound?
Its MIC is 2 µg/mL.

What about the MIC50 ([2]; IDM) of the same compound?
Its MIC50 is 0.5 µg/mL.

And the MIC90 ([2]; IDM)?
The MIC90 was 4 µg/mL.

And the MIC50 ([2]; MHBII)?
Its MIC50 is 4 µg/mL.

What about the MIC90 ([2]; MHBII) of the same compound?
Its MIC90 is 32 µg/mL.
